# Data: patent publication US20150231236A1, “METHODS FOR TREATING PATIENTS WITH HYPERCHOLESTEROLEMIA THAT IS NOT ADEQUATELY CONTROLLED BY MODERATE-DOSE STATIN THERAPY” (Regeneron Pharmaceuticals, Inc., priority 2014, published 2015)
# System: patients with hypercholesterolemia at high CV risk not adequately controlled with atorvastatin (20 mg or 40 mg)
# Assay: Example 2: randomized, double-blind trial, lipid efficacy of mAb316P add-on to atorvastatin vs EZE add-on, atorvastatin dose doubling or switch to rosuvastatin
# Assay type: in vivo, human
# Settings: for LDL-C W24 % change from baseline, LS mean (SE): ITT population, treatment arm as labelled; for LDL-C W24 % change from baseline, LS mean (SE) / Proportion of Patients Reaching LDL-C goal (%) / reduced LDL-C levels by: week 24; for Proportion of Patients Reaching LDL-C goal (%): calculated LDL-C <70 mg/dL very high risk or <100 mg/dL high risk, combined estimate; for reduced LDL-C levels by: add-on mAb316P
# Procedure: The present study was a randomized, double-blind, active-comparator, parallel-group study in patients at high CV risk with non-FH or heFH who are not adequately controlled with atorvastatin (20 mg or 40 mg) with or without other lipid-modifying therapy (LMT) (excluding EZE). The study design is illustrated in FIG. 1. Patients who entered the study were taking either atorvastatin 20 mg or atorvastatin 40 mg. The former patients were randomized to 1 of 3 treatment arms (arms 1 to 3); the latter patients were randomized to 1 of 4 treatment arms (arms 4 to 7). The treatment arms are as follows:
# (1) mAb316P+atorvastatin 20 mg+placebo-EZE; (2) Placebo-mAb316P+atorvastatin 40 mg+placebo-EZE; and (3) Placebo-mAb316P+atorvastatin 20 mg+EZE 10 mg.
# (4) mAb316P+atorvastatin 40 mg+placebo-EZE; (5) Placebo-mAb316P+atorvastatin 80 mg+placebo-EZE; (6). Placebo-mAb316P+rosuvastatin 40 mg+placebo-EZE; and (7) Placebo-mAb316P+atorvastatin 40 mg+EZE 10 mg.
# (B) a double-blind treatment period of 24 weeks. Each patient received a SC injection Q2W (mAb316P or placebo-mAb316P) and was administered (or instructed to take) 2 oral blinded medications daily (a statin [atorvastatin or rosuvastatin] and EZE or placebo-EZE). The first injection of mAb316P or placebo-mAb316P was administered at the clinical site on day 1, after study assessments were completed, and as soon as possible after the patient was randomized into the study. The patient/caregiver administered subsequent injections outside of the clinic according to the dosing schedule. On days where the clinic study visit coincided with dosing, the dose of study drugs (injectable and oral) were administered after all study assessments had been performed and all laboratory samples collected. The last dose of mAb316P or placebo-mAb316P was administered at week 22. The last dose of daily oral study drugs was administered at week 24. At week 12, based on their baseline CV risk, certain patients randomized to mAb316P in a blinded manner, had their dose increased as follows:
# Each patient received a subcutaneous (SC) injection once every two weeks (Q2W) (mAb316P or placebo-mAb316P) and took 2 oral blinded medications daily (a statin [atorvastatin or rosuvastatin] and EZE or placebo-EZE).
# The injectable study treatment was a single SC injection of 1 mL for a 75 mg or 150 mg dose of mAb316P or placebo-mAb316P provided in an auto-injector, administered in the abdomen, thigh, or outer area of the upper arm. The first injection of study drug was administered at the clinical site, as soon as possible after the patient was randomized into the study. The patient was monitored at the clinical site for at least 30 minutes following the first injection. The patient/caregiver administered subsequent injections outside of the clinic, according to the dosing schedule. On days where the clinic study visit coincided with dosing, the dose of study drug was administered after all study assessments have been performed and all laboratory samples collected.
# The dose of mAb316P was increased, in a blinded manner, from 75 mg to 150 mg SC Q2W, starting at week 12, based on baseline CV risk in the following circumstances:
# The primary efficacy endpoint was the percent change in calculated LDL-C from baseline to week 24, which is defined as: 100× (calculated LDL-C value at week 24−calculated LDL-C value at baseline)/calculated LDL-C value at baseline. The baseline calculated LDL-C value was the last LDL-C level obtained before the first double-blind study drug injection. The calculated LDL-C at week 24 will be the LDL-C level obtained within the week 24 analysis window and during the main efficacy period. The main efficacy period was defined as the time from the first double-blind study drug injection up to 21 days after the last double-blind study drug injection or up to the upper limit of the week 24 analysis window, whichever comes first.
# Total-C, HDL-C, TG, ApoB, ApoA-1, and Lp (a) were directly measured by a central laboratory. […]
compound,measurement,setting,value
mAb316P + ATV 20: treatment arm: mAb316P 75/150 mg Q2W + atorvastatin 20 mg daily,"LDL-C W24 % change from baseline, LS mean (SE)",,−44.1%
same,"Calculated LDL-C LS mean (SE), % Change from Baseline",Week 4,−53.3 (3.4) %
same,"Calculated LDL-C LS mean (SE), Change from Baseline",Week 4,−55.8 (3.5)
same,"Calculated LDL-C LS mean (SE), Value (mg/dL)",Week 4,46.0 (3.5) mg/dL
same,"Calculated LDL-C LS mean (SE), % Change from Baseline",Week 8,−51.2 (3.8) %
same,"Calculated LDL-C LS mean (SE), Change from Baseline",Week 8,−51.4 (4.1)
same,"Calculated LDL-C LS mean (SE), Value (mg/dL)",Week 8,50.4 (4.1) mg/dL
same,"Calculated LDL-C LS mean (SE), % Change from Baseline",Week 12,−48.4 (3.8) %
same,"Calculated LDL-C LS mean (SE), Change from Baseline",Week 12,−49.0 (4.2)
same,"Calculated LDL-C LS mean (SE), Value (mg/dL)",Week 12,52.8 (4.2) mg/dL
same,"Calculated LDL-C LS mean (SE), % Change from Baseline",Week 16,−53.8 (3.9) %
same,"Calculated LDL-C LS mean (SE), Change from Baseline",Week 16,−54.8 (4.3)
same,"Calculated LDL-C LS mean (SE), Value (mg/dL)",Week 16,47.0 (4.3) mg/dL
same,"Calculated LDL-C LS mean (SE), % Change from Baseline",Week 24,−44.1 (4.5) %
same,"Calculated LDL-C LS mean (SE), Change from Baseline",Week 24,−47.5 (4.7)
same,"Calculated LDL-C LS mean (SE), Value (mg/dL)",Week 24,54.3 (4.7) mg/dL
same,Proportion of Patients Reaching LDL-C goal (%),,87.2%
"CC(C)c1c(C(=O)Nc2ccccc2)c(-c2ccccc2)c(-c2ccc(F)cc2)n1CC[C@@H](O)C[C@@H](O)CC(=O)O [atorvastatin, reference compound]","LDL-C W24 % change from baseline, LS mean (SE)",listed as ATV 40,−5.0%
same,"LDL-C W24 % change from baseline, LS mean (SE)",listed as ATV 80,−4.8%
same,"Calculated LDL-C LS mean (SE), % Change from Baseline","Week 4, listed as ATV 40",−9.9 (3.4) %
same,"Calculated LDL-C LS mean (SE), Change from Baseline","Week 4, listed as ATV 40",−12.9 (3.6)
same,"Calculated LDL-C LS mean (SE), Value (mg/dL)","Week 4, listed as ATV 40",88.9 (3.6) mg/dL
same,"Calculated LDL-C LS mean (SE), % Change from Baseline","Week 4, listed as ATV 80",−11.7 (2.7) %
same,"Calculated LDL-C LS mean (SE), Change from Baseline","Week 4, listed as ATV 80",−15.3 (2.9)
same,"Calculated LDL-C LS mean (SE), Value (mg/dL)","Week 4, listed as ATV 80",93.4 (2.9) mg/dL
same,"Calculated LDL-C LS mean (SE), % Change from Baseline","Week 8, listed as ATV 40",−12.6 (3.8) %
same,"Calculated LDL-C LS mean (SE), Change from Baseline","Week 8, listed as ATV 40",−15.1 (4.1)
same,"Calculated LDL-C LS mean (SE), Value (mg/dL)","Week 8, listed as ATV 40",86.7 (4.1) mg/dL
same,"Calculated LDL-C LS mean (SE), % Change from Baseline","Week 8, listed as ATV 80",−13.1 (3.1) %
same,"Calculated LDL-C LS mean (SE), Change from Baseline","Week 8, listed as ATV 80",−17.2 (3.2)
same,"Calculated LDL-C LS mean (SE), Value (mg/dL)","Week 8, listed as ATV 80",91.5 (3.2) mg/dL
same,"Calculated LDL-C LS mean (SE), % Change from Baseline","Week 12, listed as ATV 40",−8.5 (3.9) %
same,"Calculated LDL-C LS mean (SE), Change from Baseline","Week 12, listed as ATV 40",−11.9 (4.3)
same,"Calculated LDL-C LS mean (SE), Value (mg/dL)","Week 12, listed as ATV 40",89.9 (4.3) mg/dL
same,"Calculated LDL-C LS mean (SE), % Change from Baseline","Week 12, listed as ATV 80",−14.5 (3.2) %
same,"Calculated LDL-C LS mean (SE), Change from Baseline","Week 12, listed as ATV 80",−17.9 (3.4)
same,"Calculated LDL-C LS mean (SE), Value (mg/dL)","Week 12, listed as ATV 80",90.8 (3.4) mg/dL
same,"Calculated LDL-C LS mean (SE), % Change from Baseline","Week 16, listed as ATV 40",−8.2 (3.9) %
same,"Calculated LDL-C LS mean (SE), Change from Baseline","Week 16, listed as ATV 40",−10.9 (4.3)
same,"Calculated LDL-C LS mean (SE), Value (mg/dL)","Week 16, listed as ATV 40",90.9 (4.3) mg/dL
same,"Calculated LDL-C LS mean (SE), % Change from Baseline","Week 16, listed as ATV 80",−8.0 (3.4) %
same,"Calculated LDL-C LS mean (SE), Change from Baseline","Week 16, listed as ATV 80",−11.3 (3.8)
same,"Calculated LDL-C LS mean (SE), Value (mg/dL)","Week 16, listed as ATV 80",97.4 (3.8) mg/dL
same,"Calculated LDL-C LS mean (SE), % Change from Baseline","Week 24, listed as ATV 40",−5.0 (4.6) %
same,"Calculated LDL-C LS mean (SE), Change from Baseline","Week 24, listed as ATV 40",−7.9 (4.7)
same,"Calculated LDL-C LS mean (SE), Value (mg/dL)","Week 24, listed as ATV 40",93.9 (4.7) mg/dL
same,"Calculated LDL-C LS mean (SE), % Change from Baseline","Week 24, listed as ATV 80",−4.8 (4.2) %
same,"Calculated LDL-C LS mean (SE), Change from Baseline","Week 24, listed as ATV 80",−8.7 (4.5)
same,"Calculated LDL-C LS mean (SE), Value (mg/dL)","Week 24, listed as ATV 80",100.0 (4.5) mg/dL
same,reduced LDL-C levels by,"atorvastatin 20 mg regimen, add-on ezetimibe or doubling of atorvastatin dose",5.0%
same,reduced LDL-C levels by,"atorvastatin 40 mg regimen, add-on ezetimibe, doubling of atorvastatin dose or switch to rosuvastatin 40 mg",4.8%
same,Proportion of Patients Reaching LDL-C goal (%),listed as ATV 40,34.5%
same,Proportion of Patients Reaching LDL-C goal (%),listed as ATV 80,15.4%
mAb316P + ATV 40: treatment arm: mAb316P 75/150 mg Q2W + atorvastatin 40 mg daily,"LDL-C W24 % change from baseline, LS mean (SE)",,−54.0%
same,"Calculated LDL-C LS mean (SE), % Change from Baseline",Week 4,−56.5 (2.8) %
same,"Calculated LDL-C LS mean (SE), Change from Baseline",Week 4,−63.2 (2.9)
same,"Calculated LDL-C LS mean (SE), Value (mg/dL)",Week 4,45.5 (2.9) mg/dL
same,"Calculated LDL-C LS mean (SE), % Change from Baseline",Week 8,−55.7 (3.2) %
same,"Calculated LDL-C LS mean (SE), Change from Baseline",Week 8,−63.4 (3.3)
same,"Calculated LDL-C LS mean (SE), Value (mg/dL)",Week 8,45.3 (3.3) mg/dL
same,"Calculated LDL-C LS mean (SE), % Change from Baseline",Week 12,−50.5 (3.2) %
same,"Calculated LDL-C LS mean (SE), Change from Baseline",Week 12,−56.9 (3.5)
same,"Calculated LDL-C LS mean (SE), Value (mg/dL)",Week 12,51.8 (3.5) mg/dL
same,"Calculated LDL-C LS mean (SE), % Change from Baseline",Week 16,−56.9 (3.5) %
same,"Calculated LDL-C LS mean (SE), Change from Baseline",Week 16,−64.3 (3.9)
same,"Calculated LDL-C LS mean (SE), Value (mg/dL)",Week 16,44.4 (3.9) mg/dL
same,"Calculated LDL-C LS mean (SE), % Change from Baseline",Week 24,−54.0 (4.3) %
same,"Calculated LDL-C LS mean (SE), Change from Baseline",Week 24,−62.3 (4.6)
same,"Calculated LDL-C LS mean (SE), Value (mg/dL)",Week 24,46.4 (4.6) mg/dL
same,Proportion of Patients Reaching LDL-C goal (%),,82.4%
